Experimental data published in paper PMC4094919, “Screening and hit evaluation of a chemical library against blood-stage Plasmodium falciparum” (Malaria Journal, 2014).
“Also recorded” adds a separate entry of the source. Where two headings read alike, the source gives them in different places.

Key:
P. falciparum 3D7 strain = assay: P. falciparum 3D7 growth inhibition, DAPI imaging (HTS screen); format: cell-based; conditions: Plasmodium falciparum
Description: The P. falciparum 3D7 strain was used for the primary screen.
For the screening of the chemical library, a validated high throughput screening (HTS) method was used as reported by Duffy and Avery. In brief, intra-erythrocyte P. falciparum 3D7 parasites incubated with the compounds for 72 hours were stained with 4′-6-diamidino-2-phenylindole (DAPI) and imaged using a high throughput confocal imaging system. To ascertain inhibition of parasite growth, images of fluorescent parasites were translated, using a mathematical algorithm, into a numerical output of classified spots (parasites) as determined by fluorescence size and intensity.
EC50 and CC50 values were calculated for compounds which presented an Emax plateau using GraphPad Prism.

[1] = Chemical stability on standing at room temperature; format: physicochemical
[2] = system: P. falciparum NF54 strain; assay: P. falciparum NF54 growth assay, 3H-hypoxanthine incorporation (hit validation); format: cell-based, Plasmodium falciparum; conditions: for EC50: Plasmodium falciparum
Description: Synthesized compounds were tested in an alternative assay, in which ^3H-hypoxanthine incorporation was measured in the chloroquine-sensitive strain NF54 (Values were measured in duplicate, 12 points/EC50).
Cultivation of Plasmodium falciparum: Plasmodium falciparum strain NF54 was obtained from the Research and Reference Reagent Resource Center (MR4) (Manassas, VA, USA). The two strains were maintained in vitro by a modification of the method of Trager and Jensen. Cultures were maintained in A positive (A^+) human erythrocytes suspended at 5% hematocrit in complete medium. […] Parasite growth and morphology were observed daily using thin smears at 100X (oil immersion) magnification following staining with Giemsa stain.
Plasmodium falciparum growth assay: The protocol assesses the compound efficacy against the growth of P. falciparum in vitro.
All cultures used in the study are albumax II adopted. […]
Following the incubation period, the plates were harvested with a FilterMate cell harvester (Perkin Elmer) onto unifilter-96 GF/B plates, washed with distilled water to remove excess radiochemical and plates were kept for drying 37°C overnight or 60°C for 1 hr. Fifty µL of Microscint scintillation cocktail (Microscint-High Efficiency LSC-Cocktail; Perkin Elmer) added in the unifilter-96 GF/B plates and kept for 15-20 min. The plates were counted in a Top Count NXT microplate scintillation and luminescence counter (Perkin Elmer). The mean values for [^3H]-hypoxanthine incorporation in parasitized control and non-parasitized control erythrocytes were calculated.
Assay data were analysed using Graph pad prism ver.5 software. A variable sigmoid dose response curve is plotted keeping log concentrations at X-axis and % inhibition at Y-axis.

## Cc1c(CO)c2ccccc2n1Cc1ccccc1C#N [Compound 1, 2-((3-(hydroxymethyl)-2-methyl-1H-indol-1-yl)methyl)benzonitrile]
P. falciparum 3D7 strain; P. falciparum 3D7 strain, DAPI imaging, HTS screen, library sample, read-out: EC50 (3D7)
  EC50: 602 nM
P. falciparum 3D7 strain; negative logarithm of the molar EC50, 3D7, read-out: pEC50 (3D7) (converted)
  EC50: 631 nM
[1]
  Chemical stability: significantly degraded; also recorded: unstable
[2]; NF54, heading bounds of Figure 8: not reconfirming / reconfirming / newly synthesized compounds, read-out: EC50 (bound in Figure 8)
  EC50: > 1000 nM
[2]; P. falciparum NF54 strain, 3H-hypoxanthine incorporation, newly synthesized sample, read-out: EC50 (NF54)
  EC50: 4700 nM
[2]; negative logarithm of the molar EC50, NF54, read-out: pEC50 (NF54) (converted)
  EC50: 5010 nM
[2]; hit validation, NF54 confirmatory assay
  Comment (activity in words on retest): Weakly active/unstable
